Experimental data from patent publication US9382222B2, “Benzyl sulfonamide derivatives as RORc modulators” (Genentech, Inc., priority 2012, dated 2016).

Target: T1, RORc ligand binding domain (Homo sapiens, UniProt P51449)
T1 construct: host or cells: E. coli
T1 sequence (P51449 269-508 limits assumed): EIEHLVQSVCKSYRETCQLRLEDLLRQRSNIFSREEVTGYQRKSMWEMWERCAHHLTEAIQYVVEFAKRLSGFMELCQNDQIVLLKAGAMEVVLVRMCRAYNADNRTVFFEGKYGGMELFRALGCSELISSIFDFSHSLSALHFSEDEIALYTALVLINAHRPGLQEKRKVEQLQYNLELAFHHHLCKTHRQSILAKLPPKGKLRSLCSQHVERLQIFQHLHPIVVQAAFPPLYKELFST
Experiment: In Vitro RORc Ligand Binding Assay
Conditions: displacement of 25-[3H]hydroxycholesterol (6 nM), 0.6 ug/mL RORc receptor, 3 h at 25° C.
Procedure: In Vitro RORc Ligand Binding Assay This assay was used to determine a compound's potency in inhibiting activity of RORc by determining, Kiapp, IC50, or percent inhibition values. […] On day of the assay, 100 uL of 0.05% CHAPS (in deionized H2O) was added to all wells of the GFB Unifilter plate and allowed soak for 1 h. A wash buffer of 50 mM HEPES (pH 7.4), 150 mM NaCl, and 5 mM MgCl2 was prepared to wash the filter plate. To prepare an assay buffer, BSA was added to the wash buffer to reach 0.01% and DTT was added to reach 1 mM. […] The 20× compound stocks were diluted in DMSO with Assay Buffer 4-fold to reach 5× the final test concentration in 25% DMSO (10 uL compound+30 uL Assay Buffer). Solutions were mixed by aspiration several times with a pipette set on 50 uL volume. For the assay, 10 uL of 5× compound stock solutions in 25% DMSO were added to the assay plate in duplicate. For two point screening, 10 mM stock compound solutions were diluted in DMSO to obtain 200 uM (20× the high test concentration) and then diluted 10-fold further to reach 20 uM (20× the low test concentration). The 20× stocks were diluted 4-fold with Assay Buffer (10 uL compound+30 uL Assay Buffer) to reach 5× the test concentrations (50 uM and 5 uM) and 10 uL were added to two assay plates for the duplicate wells. […] Add 20 uL to all wells to reach 6 nM final concentration in the assay. […] Stock receptor solution was diluted in assay buffer to obtain 1.5 ug/mL in Assay Buffer. 20 uL was added to all wells. For No Receptor samples, 20 uL Assay Buffer was substituted for receptor solution. […] Following addition to the wells, the plates were incubated 3 h at 25° C. Using a Packard Filtermate Harvester, the filter plate were washed 4 times following transfer of the incubated samples. Plates were dry-filtered completely (2 h at 50° C. or overnight at room temperature). 50 uL Microscint 0 was added to all wells and read on Topcount protocol Inverted. […] For NSB wells, 1 uM 25-hydroxycholesterol was also present.

Point of comparison: CC(C)CN(c1ccccc1Cl)S(=O)(=O)c1cccc(N2CCN(S(C)(=O)=O)CC2)c1 [Compound 25, N-(2-Chloro-phenyl)-N-isobutyl-3-(4-methanesulfonyl-piperazin-1-yl)-benzenesulfonamide], IC50 528 nM. Against it:
- CC(C)CN(Cc1ccc(F)cc1)S(=O)(=O)c1ccc(NC2CCN(S(C)(=O)=O)CC2)cc1 [Compound 2, N-(4-Fluoro-benzyl)-N-isobutyl-4-(1-methanesulfonyl-piperidin-4-ylamino)-benzenesulfonamide] — 66-fold lower, 8 nM
- CC(C)CN(c1ccc(F)cc1)S(=O)(=O)c1ccc(OC2CCN(S(C)(=O)=O)CC2)cc1 [Compound 3, N-(4-Fluoro-phenyl)-N-isobutyl-4-(1-methanesulfonyl-piperidin-4-yloxy)-benzenesulfonamide] — 33-fold lower, 16 nM
- CS(=O)(=O)N1CCC(Oc2ccc(S(=O)(=O)N(c3cccc(F)c3)C3CCC3)cc2)CC1 [Compound 4, N-Cyclobutyl-N-(3-fluoro-phenyl)-4-(1-methanesulfonyl-piperidin-4-yloxy)-benzenesulfonamide] — 18-fold lower, 29 nM
- CC(C)CN(c1ccccc1C(F)(F)F)S(=O)(=O)c1ccc(NC(=O)C2CCN(S(C)(=O)=O)CC2)cc1 [Compound 11, 1-Methanesulfonyl-piperidine-4-carboxylic acid {4-[isobutyl-(2-trifluoromethyl-phenyl)-sulfamoyl]-phenyl}-amide] — 41-fold lower, 13 nM
- CC(C)CN(c1ccc(F)cc1)S(=O)(=O)c1ccc(C(=O)NC2CCN(S(C)(=O)=O)CC2)cc1 [Compound 12, 4-[(4-Fluoro-phenyl)-isobutyl-sulfamoyl]-N-(1-methanesulfonyl-piperidin-4-yl)-benzamide] — 12-fold higher, 6100 nM
- CC(C)CN(c1cccc(Cl)c1)S(=O)(=O)c1ccc(N2CCC(O)CC2)cc1 [Compound 15, N-(3-Chloro-phenyl)-4-(4-hydroxy-piperidin-1-yl)-N-isobutyl-benzenesulfonamide] — within 1.5-fold, 771 nM
- CC(C)CN(c1ccccc1Cl)S(=O)(=O)c1ccc(N2CCC(O)CC2)cc1 [Compound 16, N-(2-Chloro-phenyl)-4-(4-hydroxy-piperidin-1-yl)-N-isobutyl-benzenesulfonamide] — 2.5-fold higher, 1300 nM
- CC(=O)N1CCN(c2ccc(S(=O)(=O)N(CC(C)C)c3cccc(Cl)c3)cc2)CC1 [Compound 17, 4-(4-Acetyl-piperazin-1-yl)-N-(3-chloro-phenyl)-N-isobutyl-benzenesulfonamide] — 3.8-fold lower, 138 nM
- CC(C)CN(c1cccc(Cl)c1)S(=O)(=O)c1ccc(N2CCN(S(C)(=O)=O)CC2)cc1 [Compound 18, N-(3-Chloro-phenyl)-N-isobutyl-4-(4-methanesulfonyl-piperazin-1-yl)-benzenesulfonamide] — 4.2-fold lower, 126 nM
- CC(C)CN(c1cccc(Cl)c1)S(=O)(=O)c1ccc(N2CCN(S(=O)(=O)N(C)C)CC2)cc1 [Compound 19, 4-{4-[(3-Chloro-phenyl)-isobutyl-sulfamoyl]-phenyl}-piperazine-1-sulfonic acid dimethylamide] — 8.5-fold lower, 62 nM
- CC(C)CN(c1ccccc1Cl)S(=O)(=O)c1ccc(N2CCN(S(=O)(=O)N(C)C)CC2)cc1 [Compound 20, 4-{4-[(2-Chloro-phenyl)-isobutyl-sulfamoyl]-phenyl}-piperazine-1-sulfonic acid dimethylamide] — 6.5-fold lower, 81 nM
- CC(=O)N1CCN(c2ccc(S(=O)(=O)N(CC(C)C)c3ccccc3Cl)cc2)CC1 [Compound 21, 4-(4-Acetyl-piperazin-1-yl)-N-(2-chloro-phenyl)-N-isobutyl-benzenesulfonamide] — 5.3-fold lower, 99 nM
- CC(C)CN(c1ccccc1Cl)S(=O)(=O)c1ccc(N2CCN(S(C)(=O)=O)CC2)cc1 [Compound 22, N-(2-Chloro-phenyl)-N-isobutyl-4-(4-methanesulfonyl-piperazin-1-yl)-benzenesulfonamide] — 6.1-fold lower, 87 nM
- CC(C)CN(c1cccc(Cl)c1)S(=O)(=O)c1ccc(N2CCC(NS(C)(=O)=O)CC2)cc1 [Compound 23, N-(3-Chloro-phenyl)-N-isobutyl-4-(4-methanesulfonylamino-piperidin-1-yl)-benzenesulfonamide] — 3.1-fold lower, 169 nM
- CC(C)CN(c1ccccc1Cl)S(=O)(=O)c1ccc(N2CCC(NS(C)(=O)=O)CC2)cc1 [Compound 24, N-(2-Chloro-phenyl)-N-isobutyl-4-(4-methanesulfonylamino-piperidin-1-yl)-benzenesulfonamide] — 4.1-fold lower, 128 nM
- CC(C)CN(c1cccc(Cl)c1)S(=O)(=O)c1cccc(N2CCN(S(C)(=O)=O)CC2)c1 [Compound 26, N-(3-Chloro-phenyl)-N-isobutyl-3-(4-methanesulfonyl-piperazin-1-yl)-benzenesulfonamide] — within 1.5-fold, 414 nM
- CC(C)CN(c1cccc(Cl)c1)S(=O)(=O)c1ccc(N2CCN(S(C)(=O)=O)CC2)cc1F [Compound 27, N-(3-Chloro-phenyl)-2-fluoro-N-isobutyl-4-(4-methanesulfonyl-piperazin-1-yl)-benzenesulfonamide] — 16-fold lower, 33 nM
- CC(=O)N1CCN(c2ccc(S(=O)(=O)N(c3cccc(Cl)c3)C(C)C)cc2)CC1 [Compound 28, 4-(4-Acetyl-piperazin-1-yl)-N-(3-chloro-phenyl)-N-isopropyl-benzenesulfonamide] — 3-fold higher, 1600 nM
- CC(C)CN(c1cccc(Cl)c1)S(=O)(=O)c1ccc(N2CCN(S(C)(=O)=O)CC2)c(F)c1 [Compound 29, N-(3-Chloro-phenyl)-3-fluoro-N-isobutyl-4-(4-methanesulfonyl-piperazin-1-yl)-benzenesulfonamide] — 15-fold lower, 36 nM
- CC(=O)N1CCN(c2ccc(S(=O)(=O)N(c3cccc(Cl)c3)C3CCC3)cc2)CC1 [Compound 30, 4-(4-Acetyl-piperazin-1-yl)-N-(3-chloro-phenyl)-N-cyclobutyl-benzenesulfonamide] — 3.5-fold lower, 149 nM
- CC(=O)N1CCC(Nc2ccc(S(=O)(=O)N(CC(C)C)c3cccc(Cl)c3)cc2)CC1 [Compound 31, 4-(1-Acetyl-piperidin-4-ylamino)-N-(3-chloro-phenyl)-N-isobutyl-benzenesulfonamide] — 2-fold lower, 258 nM
- CC(C)CN(c1cccc(Cl)c1)S(=O)(=O)c1ccc(NC2CCN(S(C)(=O)=O)CC2)cc1 [Compound 32, N-(3-Chloro-phenyl)-N-isobutyl-4-(1-methanesulfonyl-piperidin-4-ylamino)-benzenesulfonamide] — 75-fold lower, 7 nM
- CC(=O)N1CCC(Oc2ccc(S(=O)(=O)N(CC(C)C)c3cccc(Cl)c3)cc2)CC1 [Compound 33, 4-(1-Acetyl-piperidin-4-yloxy)-N-(3-chloro-phenyl)-N-isobutyl-benzenesulfonamide] — 2.7-fold lower, 198 nM
- CC(C)CN(c1cccc(Cl)c1)S(=O)(=O)c1ccc(OC2CCN(S(C)(=O)=O)CC2)cc1 [Compound 34, N-(3-Chloro-phenyl)-N-isobutyl-4-(1-methanesulfonyl-piperidin-4-yloxy)-benzenesulfonamide] — 66-fold lower, 8 nM
- CC(C)CN(c1cccc(Cl)c1)S(=O)(=O)c1ccc(OC2CCN(C(N)=O)CC2)cc1 [Compound 35, 4-{4-[(3-Chloro-phenyl)-isobutyl-sulfamoyl]-phenoxy}-piperidine-1-carboxylic acid amide] — 4.9-fold lower, 108 nM
- CC(C)CN(c1cccc(Cl)c1)S(=O)(=O)c1ccc(NC2CCN(C(N)=O)CC2)cc1 [Compound 36, 4-{4-[(3-Chloro-phenyl)-isobutyl-sulfamoyl]-phenylamino}-piperidine-1-carboxylic acid amide] — 8-fold lower, 66 nM
